In patent publication US8524978B2, “Composition for production of plant body having improved sugar content, and use thereof” (Japan Science and Technology Agency, priority 2007, dated 2013):

Legend:
Assay type in all cases: in vivo
Lycopersicum esculentum [1] = experiment: Cultivation of Lycopersicum esculentum with GSSG or GSH, sensory tests of fruit (Example 1); details: 50 mL of 0.5 mM at root twice a week, 60 days
Description: In the present example, Lycopersicum esculentum was cultivated with use of GSSG or GSH. Details of cultivation are described below.
First, Lycopersicum esculentum seedlings (TAKII & CO. Ltd., product name: Osama tomato reika) were transplanted into a hydroponic culture pot ( 1/2000 a). In the hidroponic culture pot, 6 L of vermiculite (ASAHI INDUSTRIES Co., LTD.), 3 L of KUREHA horticultural soil (KUREHA CORPORATION), and 3 L of vermiculite were layered as a lower, middle, and upper layers, respectively.
During the cultivation of Lycopersicum esculentum, 50 mL of 0.5 mM GSSG or 0.5 mM GSH (adjusted with 0.1N NaOH to be at pH 7) was applied twice a week at a root per plant. The Lycopersicum esculentum plants were grown for 60 days without being subjected to bud removal. Last 10 days was used as a harvest period for harvesting fruit of the plants. For comparison, a Lycopersicum esculentum plant was grown under the same condition, except that GSSG and GSH were not applied. To the plants of any condition, 3 g of Kumiai phosphorate ammonium nitrate potassium S-604 (Chisso Asahi Fertilizer Co., Ltd.) was applied as an additional fertilizer once in 2 weeks.
(§1) Next, the fruit harvested was subjected to sensory tests of sugar content and the like. As a result, it was determined that fruit of the plant applied with GSSG increased in sugar content compared to that of the plant not applied with GSSG or GSH. Further, it was determined that the plant applied with GSSG increased in number of fruit. It was determined that fruit of the plant applied with GSH increased in sugar content and acidity.

Lycopersicum esculentum [2] = experiment: Change of sugar content over time after one application of GSH or GSSG (Example 6); details: 50 mL of 0.5 mM once at root 90 days after sowing; fruit harvested day 0 to day 4
Experimental: In the present example, a sugar content of a plant was determined after a substance for regulating an oxidation-reduction state of a cell was applied to the plant. The substance for regulating an oxidation-reduction state of a cell was GSH or GSSG. As in the case of Example 1, Lycopersicum esculentum was used as the plant. Specifically, the following operations were carried out.
Ninety days after sowing of Lycopersicum esculentum seeds, Lycopersicum esculentum plants were subjected to a GSH or GSSG treatment. The Lycopersicum esculentum plants were cultivated by the same method as in Example 1 except for the GSH or GSSG treatment. The GSH or GSSG treatment was such that 50 mL of 0.5 mM GSSH or 0.5 mM GSH (adjusted with 0.1N NaOH to be at pH 7) was applied once at a root per plant. Then, fruit of the plants was harvested every day from the 0th day until the 4th day after application of GSH or GSSG, and subjected to sugar content determination. […] FIG. 3 is a graph showing a determination result of relation between sugar content and the number of days from an application day of GSH or GSSG. In FIG. 3, the vertical scale indicates sugar content (Brix, unit: %) and the horizontal scale indicates days from the application day. In FIG. 3, lines labeled with circles, triangles, and squares show results of the plants applied with GSH, GSSG, and no GSH and no GSSG, respectively. […]

Fragaria ananassa [3] = experiment: Sugar content determination of Fragaria ananassa fruit with refractometer (Example 10); details: 50 mL of 0.2 or 0.5 mM GSSG, or 0.4 or 0.5 mM GSH, once a week at root; significance level 5%
Experimental: (§2) First, Fragaria ananassa seedlings were transplanted to a planter. In the planter, 6 L of vermiculite (ASAHI INDUSTRIES Co., LTD.), 3 L of KUREHA horticultural soil (KUREHA CORPORATION), and 3 L of vermiculite were layered as a lower, middle, and upper layers, respectively.
(§3) During cultivation of Fragaria ananassa plants, 50 mL of 0.2 mM or 0.5 mM GSSG or 50 mL of 0.4 mM or 0.5 mM GSH (adjusted with 0.1N NaOH to be at pH7) was applied once a week at a root per plant. The plants were grown for 63 days without being subjected to bud removal. For comparison, a Fragaria ananassa plant was grown under the same condition, except that GSSG and GSH were not applied. To the plants of any condition, 3 g of Kumiai phosphorate ammonium nitrate potassium S-604 (Chisso Asahi Fertilizer Co., Ltd.) was applied as an additional fertilizer once in 2 weeks.
Further, the fruit obtained was subjected to sugar content determination using “Pocket” Refractometer APAL-1 (ATAGO CO., LTD.). For comparison, fruit not applied with GSSG or GSH was also subjected to the sugar content determination. […] In FIG. 7, the vertical scale indicates sugar content (Brix, unit: %).

[4] = test system: Vitis labrusca (Delaware); experiment: Cultivation of Vitis labrusca with GSSG or GSH, sensory test (Example 5)
Experimental: In the present invention, Vitis labrusca was cultivated. Specifically, immediately after flowering of a Vitis labrusca (Delaware) plant, a mixed solution of 1 mM gibberellin (GA3) and 1 mM of an agent was applied to anthotaxy of the plant. The agent was GSSG or GSH. Then, the plant was coated with the agent and thereafter produced fruit was harvested. For comparison, a Vitis labrusca plant was cultivated in the same way, except that GA3, but not GSSG or GSH, was applied, and fruit thereof was harvested and subjected to a sensory test described below.
The fruit harvested was subjected to a sensory test of sugar content. As a result, it was determined that fruit of the plant applied with GA3 and GSSG or GSH increased in sugar content compared to that of the plant applied with only GA3. Further, it was determined that the plant applied with GSSG and GA3 increased in size of fruit.

Fragaria ananassa [5] = experiment: Cultivation of Fragaria ananassa with GSSG or GSH, sensory tests of fruit (Example 10); details: 50 mL of 0.2 or 0.5 mM GSSG, or 0.4 or 0.5 mM GSH, once a week at root, 63 days
Experimental: In the present example, Fragaria ananassa was cultivated with use of GSSG or GSH. Details of cultivation are described below.
as §2, §3
as §1, with “sugar content and decreased in acidity compared to” for “sugar content compared to”, “It was also determined that” for “It was determined that”

Lycopersicum esculentum [6] = experiment: Sugar content determination of Lycopersicum esculentum fruit with refractometer (Example 2); details: 0.5 mM applied as in Example 1; compared to Cont and Cont2 Sunny conditions; ANOVA 5%
Description: Cultivated were Lycopersicum esculentum plants to which GSSG or GSH was applied by the method described in Example 1. Then, obtained fruit of the plants was subjected to sugar content determination using “Pocket” Refractometer APAL-1 (ATAGO CO., LTD.).
For comparison, Lycopersicum esculentum plants were cultivated under two types of conditions (referred to as “Cont” and “Cont2 Sunny”). In the Cont condition, Lycopersicum esculentum plants were cultivated by the same method as in Example 1, except that GSSG and GSH were not applied. In the Cont2 Sunny condition, a Lycopersicum esculentum plant was not applied with GSSG or GSH and was independently cultivated at a site sufficiently irradiated with sunlight so that illuminance on the Lycopersicum esculentum plant becomes 100%. In the Cont condition and a condition in which GSSG or GSH was applied, the plants were planted at intervals of 40 cm to 50 cm. In this case, a plant may intercept light irradiating another plant. Therefore, illuminance on such plants becomes less than 100%.
In the condition in which GSSG was applied, the condition in which GSH is applied, and the Cont condition, three Lycopersicum esculentum plants were cultivated, respectively. In the Cont2 Sunny condition, one Lycopersicum esculentum plant was cultivated. […]

Compound: N[C@@H](CCC(=O)N[C@@H](CS)C(=O)NCC(=O)O)C(=O)O [GSH, reduced glutathione]
- acidity of fruit (sensory test) (Lycopersicum esculentum [1]): increased
- sugar content of fruit (sensory test) (Lycopersicum esculentum [1]; compared to plant not applied with GSSG or GSH): increased
- sugar content of fruit (Brix) after application (Lycopersicum esculentum [2]): rapidly improve
- sugar content of fruit (Brix), ANOVA versus fruit not applied (Fragaria ananassa [3]): significant difference
- sugar content of fruit (sensory test) ([4]; 1 mM agent mixed with 1 mM gibberellin (GA3), applied to anthotaxy, compared to plant applied with only GA3): increased
- sugar content ([4]; applied without GA3): increased
- acidity of fruit (sensory test) (Fragaria ananassa [5]): increased
- sugar content of fruit (sensory test) (Fragaria ananassa [5]; vs plant not applied): increased
- sugar content of fruit (Brix) (Lycopersicum esculentum [6]): significantly increased
